Experimental data: patent publication US20110263552A1, “MODULATION OF SIDE EFFECT PROFILE OF 5-ALPHA REDUCTASE INHIBITOR THERAPY” (SOV Therapeutics, priority 2009, published 2011)
Marks after values point to notes of the source that are not given here.

Tests used:
Male Sprague-Dawley rats = test: Organ weights in rats after 14 days of dosing (Example 9); type: in vivo
Description: The organ weights obtained from Bramson et al. are given in the right-hand column of the table for reference (Bramson, H. N., Journal of Pharmacology and Experimental Therapeutics, 1496-1502, (1997).)

[1] = Testosterone undecanoate (TU) solubility in various solubilizers
[2] = oral 200 mg twice daily, cited from earlier work
[3] = system: absorption of cholesterol; conditions: ingestion of 1 g; meal containing 500 mg of cholesterol; cited from earlier work
[4] = male Sprague-Dawley rats, 80 mg/kg/day TU, without or with 1 mg/kg/day D

## CCCCCCCCCCC(=O)O[C@H]1CC[C@H]2[C@@H]3CCC4=CC(=O)CC[C@]4(C)[C@H]3CC[C@]12C [TU, testosterone undecanoate]
Male Sprague-Dawley rats; [4]
  Body weight, Mean: 284 g
  Seminal vesicles weight, Mean: 0.902 grams
  Testicles weight, Mean: 3.374 grams
  Ventral prostate weight, Mean: 0.22 grams
Male Sprague-Dawley rats; rats, any organ measured
  Difference in organ weight versus vehicle-only: No significant differences in weight
[1]; vehicle Acconon CO-7, at 37 C.
  TU Solubility: 59 mg/g
[1]; vehicle Canola oil, at 37 C.
  TU Solubility: 167 mg/g
[1]; vehicle Capmul MCM, determined at 25° C.
  TU Solubility: >100* mg/g
[1]; vehicle Capmul PG-8, determined at 25° C.
  TU Solubility: >100* mg/g
[1]; vehicle Caprylic acid, at 37 C.
  TU Solubility: 595 mg/g
[1]; vehicle Castor oil, at 37 C.
  TU Solubility: 218 mg/g
[1]; vehicle Corn oil, at 37 C.
  TU Solubility: 243 mg/g
[1]; vehicle Cremophor RH40, determined at 25° C.
  TU Solubility: 88* mg/g
[1]; vehicle Crodamol EO (ethyl oleate), at 37 C.
  TU Solubility: 221 mg/g
[1]; vehicle Crodamol IPM (isopropyl myristate), at 37 C.
  TU Solubility: 295 mg/g
[1]; vehicle Crodamol IPP (isopropyl palmitate), at 37 C.
  TU Solubility: 215 mg/g
[1]; vehicle Ethyl linoleate, at 37 C.
  TU Solubility: 230 mg/g
[1]; vehicle Glyceryl monooleate or GMO (Peceol (Gattefosse)), at 37 C.
  TU Solubility: 323 mg/g
[1]; vehicle Glyceryl ricinoleate (Softigen 701), at 37 C.
  TU Solubility: 261 mg/g
[1]; vehicle Glyceryl trioleate (Capmul GTO), at 37 C.
  TU Solubility: 154 mg/g
[1]; vehicle Incromega E7010 (omega-3), at 37 C.
  TU Solubility: 247 mg/g
[1]; vehicle Incromega TG7010 SR (omega-3 high purity), at 37 C.
  TU Solubility: 225 mg/g
[1]; vehicle Labrafil M 2125 CS, at 37 C.
  TU Solubility: 257 mg/g
[1]; vehicle Labrasol, determined at 25° C.
  TU Solubility: 43* mg/g
[1]; vehicle Linoleic acid, at 37 C.
  TU Solubility: 391 mg/g
[1]; vehicle Linolenic acid, at 37 C.
  TU Solubility: 162 mg/g
[1]; vehicle Maisine 35-1, at 37 C.
  TU Solubility: 93 mg/g
[1]; vehicle Miglyol 812, determined at 25° C.
  TU Solubility: >100* mg/g
[1]; vehicle N-methyl pyrolidone, at 37 C.
  TU Solubility: >500 mg/g
[1]; vehicle Oleic acid, at 37 C.
  TU Solubility: 405 mg/g
[1]; vehicle Omega-3 ethyl esters w/antioxidant (AMRI), at 37 C.
  TU Solubility: 261 mg/g
[1]; vehicle Omega-3 ethyl esters w/o antioxidant (AMRI), at 37 C.
  TU Solubility: 360 mg/g
[1]; vehicle Polyglyceryl-3-diisostearate (Plurol diisosterique), at 37 C.
  TU Solubility: 173 mg/g
[1]; vehicle Polyglyceryl-3-dioleate (Plurol oleique CC497), at 37 C.
  TU Solubility: 193 mg/g
[1]; vehicle Polyglyceryl-6-dioleate (Caprol MPGO, Abitec), at 37 C.
  TU Solubility: 184 mg/g
[1]; vehicle Polysorbate 80 (Tween 80), determined at 25° C.
  TU Solubility: 39* mg/g
[1]; vehicle Polysorbate 85, at 37 C.
  TU Solubility: 125 mg/g
[1]; vehicle Propylene glycol monocaprylate (Capryol 90, Gattefosse), at 37 C.
  TU Solubility: 486 mg/g
[1]; vehicle Propylene glycol monolaurate, determined at 25° C.
  TU Solubility: >200* mg/g
[1]; vehicle Rapeseed oil, at 37 C.
  TU Solubility: 123 mg/g
[1]; vehicle Ricinoleic acid, at 37 C.
  TU Solubility: 244 mg/g
[1]; vehicle Safflower oil, at 37 C.
  TU Solubility: 124 mg/g
[1]; vehicle Span 80, at 37 C.
  TU Solubility: 289 mg/g
[1]; vehicle Sunflower oil, at 37 C.
  TU Solubility: 105 mg/g
[1]; vehicle Transcutol HP, at 37 C.
  TU Solubility: 180 mg/g
[1]; vehicle dl-alpha-tocopherol, at 37 C.
  TU Solubility: 527 mg/g

## C[C@]12CC[C@H]3[C@@H](CCC4=CC(=O)CC[C@@]43C)[C@@H]1CC[C@@H]2O [micronized testosterone, testosterone]
[2]; Daggett et al.
  time at desired level of serum testosterone for each peak: about 4 hours
[2]; Føgh et al.
  time of total serum testosterone within the normal range: greater than 12 hours

## CC[C@H](CC[C@@H](C)[C@H]1CC[C@H]2[C@@H]3CC=C4C[C@@H](O)CC[C@]4(C)[C@H]3CC[C@]12C)C(C)C [β-sitosterol]
[3]
  reduction of absorption of cholesterol: 42%
